From US7687640B2, “Cinnamide compound” (Eisai R&D Management Co., Ltd., priority 2004, dated 2010)
Where a name gives a salt, the structure may show the parent alone.

What follows are molecules tested on Aβ42 production (assay: Quantification of Aβ peptide (Aβx-42 ELISA) in neuronal culture from rat fetus brain). Details: primary neuronal culture from cerebral cortices of embryonic day 18 Wistar rat; compound added on day 4 of culture, incubation for 3 days; Aβx-42 in medium by ELISA, % of CTRL; read-out: Effect to Reduce Aβ42 Production IC50.
Format: cell-based
Experimental: Quantification of Aβ Peptide in Neuronal Culture from Rat Fetus Brain (1)
Primary neuronal cultures were prepared from cerebral cortices from embryonic day 18 Wistar rat (Charles River Japan, Yokohama, Japan). The embryos were aseptically removed from a pregnant rat under ether anesthesia. The brain was isolated from the embryo, and immersed in ice-cold L-15 medium (for example, Invitrogen Corp. Cat #11415-064, Carlsbad, Calif., USA, or SIGMA L1518, St. Louis. MO, USA). The cerebral cortex was collected under a stereoscopic microscope from the brain. The cerebral cortex fragments collected were subjected to enzyme treatment in an enzyme solution containing 0.25% trypsin (for example, Invitrogen Corp., Cat #15050-065, Carlsbad, Calif., USA) and 0.01% DNase (for example, Sigma D5025, St. Louis. MO, USA) at 37 C for 30 minutes to allow for cell dispersion. The enzyme reaction was terminated by addition of same volume of heat-inactivated horse serum. After centrifugation at 1500 rpm for 5 minutes, the supernatant was removed and 5-10 ml of medium was added to the cell pellet. Neurobasal Medium™ (Invitrogen Corp., Carlsbad, Calif., USA) supplemented with 2% B-27 supplement (Invitrogen Corp., Carlsbad, Calif., USA), 25 μM 2-mercaptoethanol (2-ME, WAKO, 139-06861, Osaka, Japan), 0.5 mM L-glutamine (for example, Invitrogen Corp., Cat # 25030-081, Carlsbad, Calif., USA), and 1% antibiotics-antimycotics (Invitrogen Corp., Cat # 15240-062, Carlsbad, Calif., USA) was used as the culture medium (Neurobasal/B27/2-ME). At the compound evaluation, the medium of the same composition not to add 2-ME alone (Neurobasal/B27) was used. The cell pellet was triturated by mild pipetting. Remaining cell pellet was removed by filtering through a 40-μm nylon mesh (Cell Strainer, Cat # 35-2340, Becton Dickinson Labware, Franklin Lakes, N.J., USA) and a neuronal cell suspension was obtained. The neuronal cell suspension was diluted with the Neurobasal/B27/2-ME medium and then plated in a volume of 100 μl/well to obtain an initial cell density of 5×10^5 cells/cm^2 in a 96-well polystyrene plate pre-coated with poly-L or D-lysine (for example, Falcon MICROTEST Tissue culture plate 96 well flat bottom with low evaporation lid (Cat # 35-3075, Becton Dickinson Labware, Franklin Lakes, N.J., USA) coated with poly-L-lysine using the method shown below, or BIOCOAT™ cell environments Poly-D-lysine cell ware 96-well plate, Cat # 35-6461, Becton Dickinson Labware, Franklin Lakes, N.J., USA). Poly-L-lysine coating was carried out as follows. Poly-L-lysine (SIGMA P2636, St. Louis, Mo., USA) solution at 100 μg/ml was prepared aseptically with 0.15 M Borate buffer (pH 8.5). The solution was added to a 96-well polystyrene […] at 50-100 μl/well and incubated at room temperature for one hour or more, or at 4 C overnight or longer. This was rinsed 4 or more times with sterile water, and then dried or rinsed with, for example, sterile PBS or medium, and used for plating cells. Cells were cultured for one day in an incubator of 5% CO2-95% air at 37 C, the entire amount of the medium was exchanged with fresh Neurobasal/B27/2-ME, and the cells were then cultured for further 3 days.
Drugs were added on day 4 of culture as follows. The entire amount of the medium was removed from culture well, and Neurobasal/B27 medium was added at 180 μl/well. The test compound dimethyl sulfoxide (hereinafter abbreviated as DMSO) solution was diluted with Neurobasal/B27 so than it would be 10-fold of the desired final concentration. A diluent was added at 20 μl/well and mixed well. The final concentration of DMSO was 1% or less. Only DMSO was added to the control group.
After incubation for 3 days, the entire amount of the medium was collected as ELISA sample. This was used without any dilution for Aβx-42 measurement, and diluted to 5-fold with the diluent supplied with ELISA kit for Aβx-40 measurement, before subjecting to respective ELISA assays. […]

Structure (SMILES) | IC50 [nM]
COc1cc(/C=C2\CCCN(Cc3ccc(F)c(F)c3)C2=O)ccc1-n1cnc(C)c1 [Example 416, (E)-1-(3,4-difluorobenzyl)-3-[3-methoxy-4-(4-methyl-1H-imidazol-1-yl)benzylidene]piperidin-2-one] | 100
COc1cc(/C=C2\CCCN(C(C)c3c[nH]c4ccccc34)C2=O)ccc1-n1cnc(C)c1 [Example 965, (E)-1-[(1R) and (1S)-(1H-indol-3-yl)ethyl]-3-[3-methoxy-4-(4-methyl-1H-imidazol-1-yl)benzylidene]piperidin-2-one] | 87
COc1cc(/C=C2\CCCN(C3(c4ccc(F)cc4)CCOCC3)C2=O)ccc1-n1cnc(C)c1 [Example 639, (E)-1-[4-(4-fluorophenyl)tetrahydropyran-4-yl)-3-(3-methoxy-4-(4-methyl-1H-imidazol-1-yl)benzylidene]piperidin-2-one] | 56
COc1cc(/C=C2\CCCN(Cc3ccc(F)c(F)c3)C2=O)cnc1-n1cnc(C)c1 [Example 611, (E)-1-(3,4-difluorobenzyl)-3-{[5-methoxy-6-(4-methyl-1H-imidazol-1-yl)pyridin-3-yl]methylene}piperidin-2-one] | 265
COc1cc(/C=C/C(=O)N[C@H]2CCc3ccccc32)ccc1-n1cnc(C)c1 [Example 122, (E)-N-[(1S)-indan-1-yl]-3-[3-methoxy-4-(4-methyl-1H-imidazol-1-yl)phenyl]acrylamide trifluoroacetic acid salt] | 190
COc1cc(/C=C/C(=O)NCc2cccc(-c3ccccc3)c2)ccc1-n1cnc(C)c1 [Example 121, (E)-N-biphenyl-3-ylmethyl-3-(3-methoxy-4-(4-methyl-1H-imidazol-1-yl)phenyl)acrylic acid amide] | 70
COc1cc(/C=C/C(=O)N2CCCC(c3ccc(F)cc3)CC2)ccc1-n1cnc(C)c1 (stereo not shown) [Example 353, (E)-1-[4-(4-fluorophenyl)azepan-1-yl]-3-[3-methoxy-4-(4-methyl-1H-imidazol-1-yl)phenyl]propenone] | 220
COc1cc(C=C(F)C(=O)N[C@@H]2c3ccccc3C[C@@H]2O)ccc1-n1cnc(C)c1 (stereo in doubt) [Example 90, (E)-2-fluoro-N-[(1R,2S)-2-hydroxy-indan-1-yl]-3-[3-methoxy-4-(4-methyl-1H-imidazol-1-yl)phenyl]acrylamide] | 240
COc1cc(/C=C(\F)C(=O)NC2c3ccccc3-c3ccccc32)ccc1-n1cnc(C)c1 [Example 86, N-(9H-fluoren-9-yl)-2-fluoro-3-[3-methoxy-4-(4-methyl-1H-imidazol-1-yl)phenyl]acrylamide] | 320
COc1cc(/C=C2\CCCN(Cc3cccc(F)c3)C2=O)ccc1-n1cnc(C)c1 [Example 398, (E)-1-(3-fluorobenzyl)-3-[3-methoxy-4-(4-methyl-1H-imidazol-1-yl)benzylidene]piperidin-2-one] | 220
COc1cc(/C=C2\CCCN(C3COc4ccccc4C3)C2=O)ccc1-n1cnc(C)c1 (stereo not shown) [Example 1027, (E)-1-[(3R and 3S)-chroman-3-yl]-3-[3-methoxy-4-(4-methyl-1H-imidazol-1-yl)benzylidene]piperidin-2-one] | 71
COc1cc(/C=C/C(=O)N[C@H]2CCOc3ccccc32)ccc1-n1cnc(C)c1 (mixture of isomers) [Example 414, (E)-N-[(4R) and (4S)-chroman-4-yl]-3-[3-methoxy-4-(4-methyl-1H-imidazol-1-yl)phenyl]acrylamide] | 130
COc1cc(/C=C2\CCCN(Cc3cccc(Cl)n3)C2=O)ccc1-n1cnc(C)c1 [Example 427, (E)-1-[(6-chloropyridin-2-yl)methyl]-3-[3-methoxy-4-(4-methyl-1H-imidazol-1-yl)benzylidene]piperidin-2-one] | 780
COc1cc(/C=C2\CCCN([C@H]3CCOc4ccccc43)C2=O)ccc1-n1cnc(C)c1 (mixture of isomers) [Example 420, (E)-1-[(4R) and (4S)-chroman-4-yl]-3-[3-methoxy-4-(4-methyl-1H-imidazol-1-yl)benzylidene]piperidin-2-one] | 120
COc1cc(/C=C/C(=O)N2CCC(c3cc4ccccc4n3CCO)CC2)ccc1-n1cnc(C)c1 [Example 366, (E)-1-{4-[1-(2-hydroxyethyl)-1H-indol-2-yl]piperidin-1-yl}-3-[3-methoxy-4-(4-methyl-1H-imidazol-1-yl)phenyl]propenone] | 330
COc1cc(/C=C2\CCCN(C3CCOc4cc(F)ccc43)C2=O)ccc1-n1cnc(C)c1 [Example 1025, (E)-1-[(4R) and (4S)-7-fluorochroman-4-yl]-3-[3-methoxy-4-(4-methyl-1H-imidazol-1-yl)benzylidene]piperidin-2-one] | 70
COc1cc(/C=C2\CCCN(C3CCc4ccccc4C3)C2=O)ccc1-n1cnc(C)c1 (stereo not shown) [Example 1014, (E)-3-[3-methoxy-4-(4-methyl-1H-imidazol-1-yl)benzylidene]-1-[(2R and 2S)-1,2,3,4-tetrahydronaphthalen-2-yl]piperidin-2-one] | 60
COc1cc(/C=C2\CCCN([C@@H](C)c3ccc(F)cc3)C2=O)ccc1-n1cnc(C)c1 [Example 425, (E)-1-[(1S)-1-(4-fluorophenyl)ethyl]-3-[3-methoxy-4-(4-methyl-1H-imidazol-1-yl)benzylidene]piperidin-2-one] | 80
COc1cc(/C=C/C(=O)N2CCC(c3cc4ccccc4[nH]3)CC2)ccc1-n1cnc(C)c1 [Example 338, (E)-1-{4-(1H-indol-2-yl)piperidin-1-yl}-3-[3-methoxy-4-(4-methyl-1H-imidazol-1-yl)phenyl]propenone] | 330
COc1cc(/C=C2\CCCN(C3Cc4ccccc4C3)C2=O)ccc1-n1cnc(C)c1 [Example 418, (E)-1-indan-2-yl-3-[3-methoxy-4-(4-methyl-1H-imidazol-1-yl)benzylidene]piperidin-2-one] | 109
COc1cc(/C=C2\CCCN(C(c3ccc(F)cc3)C(C)C)C2=O)ccc1-n1cnc(C)c1 [Example 976, (E)-1-[(1S) and (1R)-1-(4-fluorophenyl)-2-methylpropyl]-3-[3-methoxy-4-(4-methyl-1H-imidazol-1-yl)benzylidene]piperidin-2-one] | 80
COc1cc(/C=C/C(=O)N[C@@H](CF)Cc2ccccc2)ccc1-n1cnc(C)c1 [Example 139, (E)-N-[(1R)-fluoromethyl-2-phenylethyl]-3-[3-methoxy-4-(4-methyl-1H-imidazol-1-yl)phenyl]acrylic acid amide] | 200
COc1cc(/C=C2\CCCN(Cc3ccc(C(C)(C)C)cc3)C2=O)ccc1-n1cnc(C)c1 [Example 430, (E)-1-(4-tert-butylbenzyl)-3-[3-methoxy-4-(4-methyl-1H-imidazol-1-yl)benzylidene]piperidin-2-one] | 119
COc1cc(/C=C(\Cc2ccccc2)C(=O)N[C@@H]2c3ccccc3C[C@@H]2O)ccc1-n1cnc(C)c1 [Example 96, (E)-2-benzyl-N-[(1R,2S)-2-hydroxy-indan-1-yl]-3-[3-methoxy-4-(4-methyl-1H-imidazol-1-yl)phenyl]acrylamide trifluoroacetic acid salt] | 220
COc1cc(/C=C2\CCCN(Cc3cccc(I)c3)C2=O)ccc1-n1cnc(C)c1 [Example 402, (E)-1-(3-iodobenzyl)-3-[3-methoxy-4-(4-methyl-1H-imidazol-1-yl)benzylidene]piperidin-2-one monotrifluoroacetic acid salt] | 70
